Measured values from patent US20220400676A1, “HERBICIDAL COMPOUNDS” (SYNGENTA CROP PROTECTION AG, priority 2019, published 2022).

How the values were obtained:
ZEAMX = experiment: Comparative Test (Post-Emergence), crop; format: in vivo, corn
AMARE = experiment: Comparative Test (Post-Emergence), weed; format: in vivo, Amaranthus retoflexus
Experimental: (§1) Seeds of a variety of test species are sown in standard soil in pots Amaranthus retoflexus (AMARE), Echinochloa crus-galli (ECHCG), Setaria faberi (SETFA)). After cultivation for one day (pre-emergence) or after 8 days cultivation (post-emergence) under controlled conditions in a glasshouse (at 24/16° C., day/night; 14 hours light; 65% humidity), the plants are sprayed with an aqueous spray solution derived from the formulation of the technical active ingredient in acetone/water (50:50) solution containing 0.5% Tween 20 (polyoxyethelyene sorbitan monolaurate, CAS RN 9005-64-5). Compounds are applied at 250 g/ha unless otherwise stated. The test plants are then grown in a glasshouse under controlled conditions in a glasshouse (at 24/16° C., day/night; 14 hours light; 65% humidity) and watered twice daily. After 13 days for pre- and post-emergence, the test is evaluated for the percentage damage caused to the plant. The biological activities are shown in the following table on a five-point scale (5=81-100%; 4=61-80%; 3=41-60%; 2=21-40%; 1=0-20%).

Setaria faberi (SETFA) [1] = experiment: Post-emergence herbicidal glasshouse test; format: in vivo; conditions: 250 g/ha, evaluated after 13 days
Experimental: as §1

[2] = system: Amaranthus retoflexus (AMARE); experiment: Post-emergence herbicidal glasshouse test; format: in vivo; conditions: 250 g/ha, evaluated after 13 days
Experimental: as §1

[3] = system: Echinochloa crus-galli (ECHCG); experiment: Post-emergence herbicidal glasshouse test; format: in vivo; conditions: 250 g/ha, evaluated after 13 days
Experimental: as §1

Setaria faberi (SETFA) [4] = experiment: Pre-emergence herbicidal glasshouse test; format: in vivo; conditions: 250 g/ha, evaluated after 13 days
Experimental: as §1

[5] = system: Amaranthus retoflexus (AMARE); experiment: Pre-emergence herbicidal glasshouse test; format: in vivo; conditions: 250 g/ha, evaluated after 13 days
Experimental: as §1

[6] = system: Echinochloa crus-galli (ECHCG); experiment: Pre-emergence herbicidal glasshouse test; format: in vivo; conditions: 250 g/ha, evaluated after 13 days
Experimental: as §1

Row | Structure (SMILES) | % Phytotoxicity ZEAMX (ZEAMX; rate 16 g/ha) [%] | % Phytotoxicity ZEAMX (ZEAMX; rate 63 g/ha) [%] | % Phytotoxicity ZEAMX (ZEAMX; rate 250 g/ha) [%] | % Phytotoxicity AMARE (AMARE; rate 16 g/ha) [%] | % Phytotoxicity AMARE (AMARE; rate 63 g/ha) [%] | % Phytotoxicity AMARE (AMARE; rate 250 g/ha) [%] | % Phytotoxicity ZEAMX (ZEAMX; rate 33 g/ha) [%] | % Phytotoxicity AMARE (AMARE; rate 33 g/ha) [%] | percentage damage caused to the plant, five-point scale, SETFA (Setaria faberi (SETFA) [1]) | percentage damage caused to the plant, five-point scale, AMARE [2] | percentage damage caused to the plant, five-point scale, ECHCG [3] | percentage damage caused to the plant, five-point scale, SETFA (Setaria faberi (SETFA) [4]) | percentage damage caused to the plant, five-point scale, AMARE [5] | percentage damage caused to the plant, five-point scale, ECHCG [6]
1 | COc1ccnc(Oc2cccc(F)c2-c2cc(C(F)F)no2)n1 | 0 | 10 | 20 | 0 | 10 | 20 |  |  |  |  |  |  |  | 
2 | COc1cc(OC)nc(Oc2cccc(F)c2-c2cc(C(F)F)no2)n1 | 0 |  | 0 | 0 |  | 0 | 0 | 0 |  |  |  |  |  | 
3 | CNc1ncnc(Oc2cccc(F)c2-c2cc(C(F)F)no2)c1Cl [Compound 2.002] |  |  |  |  |  |  |  |  | 1 (1=0-20%) | 2 (2=21-40%) | 1 (1=0-20%) | 1 (1=0-20%) | 2 (2=21-40%) | 1 (1=0-20%)
4 | COc1cc(Oc2cccc(Br)c2-c2cc(C(F)F)no2)ncn1 [Compound 2.003] |  |  |  |  |  |  |  |  | 4 (4=61-80%) | 3 (3=41-60%) | 4 (4=61-80%) | 5 (5=81-100%) | 5 (5=81-100%) | 5 (5=81-100%)
5 | COc1cc(Oc2cccc(Cl)c2-c2cc(C(F)F)no2)ncn1 [Compound 2.004] |  |  |  |  |  |  |  |  | 4 (4=61-80%) | 4 (4=61-80%) | 4 (4=61-80%) | 5 (5=81-100%) | 5 (5=81-100%) | 5 (5=81-100%)
6 | CNc1cc(Oc2cccc(F)c2-c2cc(C(F)F)no2)ncn1 [Compound 2.005] |  |  |  |  |  |  |  |  | 2 (2=21-40%) | 2 (2=21-40%) | 2 (2=21-40%) | 2 (2=21-40%) | 2 (2=21-40%) | 2 (2=21-40%)
7 | Cc1cc(Oc2cccc(Br)c2-c2cc(C(F)F)no2)ncn1 [Compound 2.006] |  |  |  |  |  |  |  |  | 3 (3=41-60%) | 1 (1=0-20%) | 3 (3=41-60%) | 4 (4=61-80%) | 2 (2=21-40%) | 5 (5=81-100%)
8 | Cc1cc(Oc2cccc(Cl)c2-c2cc(C(F)F)no2)ncn1 [Compound 2.007] |  |  |  |  |  |  |  |  | 4 (4=61-80%) | 2 (2=21-40%) | 4 (4=61-80%) | 5 (5=81-100%) | 4 (4=61-80%) | 5 (5=81-100%)
9 | Cc1ncnc(Oc2cccc(F)c2-c2cc(C(F)F)co2)c1F [Compound 2.008] |  |  |  |  |  |  |  |  | 1 (1=0-20%) | 3 (3=41-60%) | 1 (1=0-20%) | 4 (4=61-80%) | 4 (4=61-80%) | 4 (4=61-80%)
10 | COc1cc(Oc2cccc(F)c2-c2cc(C(F)F)no2)ncn1 [Compound 2.017, 3-(difluoromethyl)-5-[2-fluoro-6-(6-methoxypyrimidin-4-yl)oxy-phenyl]isoxazole] |  |  |  |  |  |  |  |  | 4 (4=61-80%) | 4 (4=61-80%) | 4 (4=61-80%) | 5 (5=81-100%) | 5 (5=81-100%) | 5 (5=81-100%)
11 | COc1cc(Oc2cccc(F)c2-c2cc(C(F)F)no2)ncn1 [drawing 58] | 0 | 10 | 10 | 60 | 60 | 80 |  |  |  |  |  |  |  | 
